In general, EC50 refers to the concentration at which the effect is half-maximal.

The values that follow come from article PMC12518634, “The noncanonical function of liver-type phosphofructokinase potentiates the efficacy of HDAC inhibitors in cancer” (Signal Transduction and Targeted Therapy, 2025).

Each structure is given as a SMILES string. Structures can show the parent of a compound that is named as a salt. Where two headings read alike, the source gives them in different places.

In assay [1] the test system is 783C-6. The assay can be described thus: High-throughput drug screen, CellTiter-Glo viability, 72 h. The assay is classed as cell-based, human. As to conditions: for AUC: area under the dose-response curve; for EC50: 72 h, read-out: EC50. Further details: AUC: scale not given here. On the procedure:
(§1) The cells were seeded and incubated with a gradient of concentrations of drugs for 72 h, after which the cell viability was assessed (Supplementary Fig. 1a). The drug library primarily comprises epigenetic drugs, including HDAC inhibitors, DNA methyltransferase inhibitors, and histone demethylase inhibitors, as well as conventional chemotherapies and kinase inhibitors (Supplementary Fig. 1b and Supplementary Table 1). […] To identify novel therapeutics against CCA, we conducted a high-throughput screen employing PerkinElmer’s integrated robotic Explorer G3 workstations. […] Following dilution to five specified concentrations, drugs were dispensed into 96-well plates in the sequence detailed in Supplementary Fig. 1a. The CCA cell lines were subsequently plated in 384-well plates at a density of 3000 cells per well in a 20 μL total volume. After a 24-h incubation, the compounds were added to the wells and incubated for 72 h. We then quantified cell viability via the CellTiter-Glo luminescent assay according to the manufacturer’s protocol. Signal detection was carried out on a Synergy2 plate reader operated by Gen5 software (BioTek). For data processing, the raw luminescence data were processed through the Breeze pipeline for curve fitting, yielding quality control metrics (e.g., Z-factors) and drug response parameters (AUC and DSS), as adapted from previous work.[54] Drug responses were evaluated on the basis of the drug sensitivity score (DSS), and a cutoff of ≥10 was used to define efficacy. The complete drug library and screening dataset are available in Supplementary Tables 1-3.
(§2) Supplementary Fig. 1. A high-throughput drug screen to identify drugs targeting CCA. a Schematic representation of the drug screening protocol. […] Each drug was tested at five different concentrations (10, 1, 0.1, 0.01, and 0.001 μM), and each treatment was replicated twice. b Classification of drugs used for screening.

In assay [2] the test system is 1405R3. The assay is described as above. It is filed as cell-based, human. Further details: AUC: scale not given here. The conditions noted are these: 1405R3 DSRT analysis; for AUC: area under the dose-response curve; for MIN: lower asymptote of fitted dose-response curve; for SLOPE: slope of fitted dose-response curve; for EC50: 72 h, fitted dose-response curve, Min.Conc.tested 1, Max.Conc.tested 10000, read-out: EC50. On the procedure: as §1, §2

Where [3] appears, read: 783C-6 DSRT analysis, DSS calculated from the dose-response curve.
The mark [4] stands for this setting: 783C-6 DSRT analysis, MIN of the fitted dose-response curve.
[5] abbreviates: 783C-6 DSRT analysis, slope of the fitted dose-response curve.
Setting [6] is: 783C-6 cells, DSS of DSRT analysis.
Setting [7] is: 783C-6 cells, minimum of dose-response curve.
Where [8] appears, read: 783C-6 cells, slope of fitted dose-response curve.
[9] abbreviates: 783C-6 cells, DSRT analysis, CellTiter-Glo viability, concentrations tested 1 to 10000 (unit inferred), GI50.
[10] abbreviates: Homo sapiens, CellTiter-Glo viability, GI50.

For `CCCc1cc(C)[nH]c(=O)c1CNC(=O)c1cc(-c2ccnc(N3CCN(C)CC3)c2)cc2c1cnn2C(C)C` [GSK343], the DSS in assay [1] (setting [3]) and in assay [2] (DSS) was 0 in each case. Further, the MIN was 98.1 in assay [1] (setting [4]) and 91.2 in assay [2]. Also, the AUC in assay [1] (783C-6 DSRT analysis) is on record as 2.9; in assay [2], 13.6.
For `N[C@@H]1CCCN(c2c(/C=C3\SC(=O)NC3=O)cccc2-c2ccccc2)C1` [AZD1208], the DSS in assay [1] (setting [3]) and in assay [2] (DSS) was 0 each time. Also, the MIN in assay [1] (setting [4]) came to 87.6; in assay [2] it was 87. The figures for the AUC in assay [1] (783C-6 DSRT analysis) and in assay [2] were 19.2 and 16, respectively. Moreover, the SLOPE in assay [1] (setting [5]) is listed as -0.1; in assay [2] it was -0.2.
As to `CNCCN1CCC(OCc2ccccc2)CC1` [MS049], the DSS in assay [1] (setting [6]) and in assay [2] (drug sensitivity score) was 0 in each case. The AUC in assay [1] (783C-6 cells) was determined as 4.9; in assay [2] it was 20.8. Moreover, the MIN in assay [1] (setting [7]) was 83.6; in assay [2], 86.6. The figures for the SLOPE in assay [1] (setting [8]) and in assay [2] were -1 and -0.1, respectively.
`O=C(NC[C@H](O)CN1CCc2ccccc2C1)c1cc(NC2COC2)ncn1` [EPZ015666]: the DSS in assay [1] (setting [3]) and in assay [2] (DSS) was 0 each time. The figures for the MIN in assay [1] (setting [4]) and in assay [2] were 85 and 90.1, respectively. Also, the AUC in assay [1] (783C-6 DSRT analysis) worked out at 4.5; in assay [2], 15.4.
With `Cc1cc(-c2ccccc2)cc(C(=O)NNS(=O)(=O)c2cccc(O)c2)c1F` [WM-3835], the DSS in assay [1] (setting [6]) and in assay [2] (drug sensitivity score) was 0 in each case. Besides, the AUC is listed as 15.7 in assay [1] (783C-6 cells) and 14.5 in assay [2]. In addition, the MIN in assay [1] (setting [7]) is given as 93.1; in assay [2], 90.6.
As for `O=C(O)CCCc1ccccc1` [Sodium Phenylbutyrate], the DSS in assay [1] (setting [6]) and in assay [2] (drug sensitivity score) was 0 in each case. In addition, the AUC in assay [1] (783C-6 cells) amounted to 15; in assay [2], 9.3. Besides, the results for the MIN in assay [1] (setting [7]) and in assay [2] were 91.2 and 90.9, respectively.
On to `Cc1cc(Cl)ccc1OCCCC(=O)NO` [Droxinostat], for which the DSS in assay [1] (setting [3]) and in assay [2] (DSS) was 0 throughout. For the same compound, the figures for the MIN in assay [1] (setting [4]) and in assay [2] were 90.5 and 97.1, respectively. Also, the AUC in assay [1] (783C-6 DSRT analysis) is reported as 2.9; in assay [2], 1.2. Also, the SLOPE in assay [1] (setting [5]) is -1; in assay [2], -0.7.
Consider `Cc1cc(-c2ccc3nc(C4CCOCC4)n(CCOC(F)(F)F)c3c2)cn(C)c1=O` [NEO2734], for which the EC50 in assay [1] (setting [9]) was found to be 0.0874 µM; in assay [2] (CellTiter-Glo viability, GI50), 0.407 µM. For the same compound, the values for the DSS in assay [1] (setting [6]) and in assay [2] (drug sensitivity score) were 6.1 and 14.3, respectively. Besides, the AUC in assay [1] (783C-6 cells) amounted to 72.8; in assay [2] it was 130.5. Further, the values for the MIN in assay [1] (setting [7]) and in assay [2] were 64.2 and 8.1, respectively. Also, the SLOPE in assay [1] (setting [8]) was -0.3; in assay [2] it was -0.9.
On to `CC(C)(CNC(=O)c1cccc(-c2noc(C(F)(F)F)n2)c1)c1coc(-c2ccccc2)n1` [TMP195], for which the DSS in assay [1] (setting [6]) and in assay [2] (drug sensitivity score) was 0 each time. The AUC came out at 1.4 in assay [1] (783C-6 cells) and 1.1 in assay [2]. In addition, the MIN in assay [1] (setting [7]) is 96; in assay [2], 97.2. Besides, the SLOPE in assay [1] (setting [8]) is -0.9; in assay [2], -0.8.
Take `O=C([C@@H](Cc1cccc(C(F)(F)F)c1)NS(=O)(=O)c1cc(F)c2c(c1)CCNC2)N1CCCC1` [PFI-2 HCl]: the DSS in assay [1] (setting [6]) and in assay [2] (drug sensitivity score) was 0 in each case. For the same compound, the AUC in assay [1] (783C-6 cells) is listed as 2.2; in assay [2], 15.4. The MIN is 95.2 in assay [1] (setting [7]) and 84.5 in assay [2].
Regarding `Cc1sc2c(c1C)C(c1ccc(Cl)cc1)=N[C@@H](CC(N)=O)c1nnc(C)n1-2` [CPI-203], the DSS in assay [1] (setting [3]) is reported as 0; in assay [2] (DSS) it was 13. For the same compound, the MIN in assay [1] (setting [4]) is on record as 93.6; in assay [2], 33.4. The AUC is on record as 3.2 in assay [1] (783C-6 DSRT analysis) and 111.9 in assay [2]. For the same compound, the SLOPE is -0.7 in assay [1] (setting [5]) and -1.2 in assay [2]. Also, in assay [2] (CellTiter-Glo), the EC50 is 0.21 µM.
Take `Cc1nn2c([nH]c(=O)c3cccnc32)c1C#N` [KDM4D-IN-1]: the DSS in assay [1] (setting [3]) and in assay [2] (DSS) was 0 throughout. Moreover, the MIN is on record as 93.6 in assay [1] (setting [4]) and 94 in assay [2]. Moreover, the AUC in assay [1] (783C-6 DSRT analysis) is on record as 0.8; in assay [2], 9.3. Further, the SLOPE is -2.5 in assay [1] (setting [5]) and -0.1 in assay [2].
As for `Nc1cc(F)ccc1NC(=O)/C=C/c1cnn(C/C=C/c2ccccc2)c1` [RGFP966], the DSS in assay [1] (setting [6]) and in assay [2] (drug sensitivity score) was 0 in each case. The AUC is listed as 7 in assay [1] (783C-6 cells) and 0.2 in assay [2]. Moreover, the MIN was 93.9 in assay [1] (setting [7]) and 98.3 in assay [2].
With `c1cncc(-c2cn[nH]n2)c1` [3-TYP], the DSS in assay [1] (setting [3]) and in assay [2] (DSS) was 0 in each case. Further, the MIN in assay [1] (setting [4]) came out at 94.7; in assay [2], 96.9. Further, the results for the AUC in assay [1] (783C-6 DSRT analysis) and in assay [2] were 2.5 and 4.8, respectively. For the same compound, the SLOPE in assay [1] (setting [5]) is -0.6; in assay [2], -0.1.
Regarding `CCCCCCCCCCCCCC(=S)NCCCC[C@H](NC(=O)OCc1ccccc1)C(=O)Nc1ccccc1` [Thiomyristoyl], the DSS in assay [1] (setting [6]) and in assay [2] (drug sensitivity score) was 0 in each case. In addition, the AUC in assay [1] (783C-6 cells) worked out at 2.1; in assay [2] it was 18.7. Also, the MIN in assay [1] (setting [7]) is 92.9; in assay [2] it was 87.9. Besides, the SLOPE in assay [1] (setting [8]) is -1; in assay [2], -0.1.
On to `CNC(=O)c1cc(Oc2ccc(NC(=O)Nc3ccc(Cl)c(C(F)(F)F)c3)cc2)ccn1` [Sorafenib Tosylate], for which the values for the DSS in assay [1] (setting [6]) and in assay [2] (drug sensitivity score) were 3.4 and 3.8, respectively. The AUC is on record as 31.4 in assay [1] (783C-6 cells) and 36.2 in assay [2]. Besides, the EC50 in assay [1] (Homo sapiens) is 2.19 µM; in assay [2] (setting [10]), 3.94 µM. The MIN in assay [2] is listed as 14.
As for `COc1cc2c(NC3CCN(C(C)C)CC3)nc(C3CCCCC3)nc2cc1OCCCN1CCCC1` [UNC0638], the figures for the DSS in assay [1] (setting [6]) and in assay [2] (drug sensitivity score) were 2 and 1.9, respectively. Moreover, the AUC in assay [1] (783C-6 cells) worked out at 21.3; in assay [2] it was 19.7. In addition, the MIN in assay [1] (setting [7]) was determined as 73.8; in assay [2], 59.1. The EC50 in assay [1] (Homo sapiens) was determined as 1.54 µM; in assay [2] (setting [10]) it was 3.37 µM.
Regarding `CCCCNNC(=O)c1ccc(-c2cccc(F)c2F)cc1` [SR-4370], the EC50 in assay [1] (setting [9]) came out at 2.63 µM; in assay [2] (CellTiter-Glo viability, GI50), 2.08 µM. In addition, the DSS was 6.1 in assay [1] (setting [6]) and 7.2 in assay [2] (drug sensitivity score). Further, the AUC worked out at 54.2 in assay [1] (783C-6 cells) and 63.7 in assay [2]. Also, the MIN in assay [1] (setting [7]) came to 7.5; in assay [2] it was 6.9. For the same compound, the SLOPE in assay [1] (setting [8]) and in assay [2] was -2.5 each time.
With `N[C@H]1CC[C@H](N[C@@H]2C[C@H]2c2ccccc2)CC1` [ORY-1001], the DSS in assay [1] (setting [6]) and in assay [2] (drug sensitivity score) was 0 in each case. For the same compound, the values for the AUC in assay [1] (783C-6 cells) and in assay [2] were 14.3 and 0.1, respectively. The MIN in assay [1] (setting [7]) turned out to be 92.7; in assay [2] it was 100.
In the case of `CC[C@@H]1C(=O)N(C)c2cnc(Nc3ccc(C(=O)NC4CCN(C)CC4)cc3OC)nc2N1C1CCCC1` [BI 2536], the DSS in assay [1] (setting [3]) is recorded as 8.8; in assay [2] (DSS), 11.6. In addition, the MIN is 52.4 in assay [1] (setting [4]) and 6.7 in assay [2]. Besides, the AUC was 90 in assay [1] (783C-6 DSRT analysis) and 98.4 in assay [2]. Moreover, the EC50 was 0.137 µM in assay [1] (Homo sapiens) and 0.884 µM in assay [2] (Homo sapiens, CellTiter-Glo).
